Results: patent US5021427A, “Novel pyrrolizidine alkaloid” (The Board of Regents, The University of Texas System, priority 1988, dated 1991)
Like-named read-outs stand apart in the source and are kept apart here.

What was measured:
alpha-mannosidase = biological target: T1, alpha-mannosidase (Canavalia ensiformis, UniProt C0HJB3); assay: alpha-mannosidase inhibition; assay type: biochemical, jack bean
T1 construct: purchased Sigma Chemical Company

beta-galactosidase = beta-galactosidase inhibition; assay type: biochemical, bovine
intestinal maltase = intestinal maltase activity, maltitol as substrate; assay type: biochemical
Description: (§1) (B) Sucrase and Maltase. Intestinal sucrase and maltase activities were determined by measuring the formation of reducing sugar from sucrose and maltitol, respectively. The reaction mixture contained 7.5 micromoles sodium citrate buffer, pH 6, 9 micromoles of substrate (sucrose or maltitol), and enzyme, in a final volume of 0.3 ml. […] For both enzymes, activity was proportional with time, and amount of protein. As described above for the arylglycosidases, inhibitors were preincubated with enzyme prior to the addition of substrate.

glucosidase II = assay: processing glucosidase II, release of p-nitrophenol from p-nitrophenyl-alpha-D-glucoside; assay type: biochemical, mung bean
[1] = test system: influenza virus glycoproteins in infected MDCK cells; assay: glycoprotein processing in influenza virus-infected MDCK cells (Endo H-sensitive oligosaccharides); settings: mannose-labeled glycopeptide, printed as 10 micro g/ml
Beta-Mannosidase = Beta-Mannosidase (Aspergillus niger, UniProt Q9UUZ3); assay: beta-mannosidase inhibition; assay type: biochemical
amyloglucosidase = biological target: T2, amyloglucosidase (Aspergillus niger, UniProt P69328); assay: amyloglucosidase (alpha-glucosidase) inhibition, p-nitrophenyl-alpha-D-glucoside substrate; assay type: biochemical
T2 construct: purchased Sigma Chemical Company

[2] = test system: human immunodeficiency virus (HIV-1); assay: replication of HIV-1 in tissue culture cells; assay type: cell-based
beta-glucosidase = beta-glucosidase inhibition, p-nitrophenyl-glycoside substrate; assay type: biochemical, almonds
uninfected MDCK cells [3] = settings: 50 micro g/ml, 60 min
Description: (§2) The cells then were incubated for 15-120 min with either [2-^3 H]mannose (20 micro Ci/ml) or [4,5-^3 H]leucine (10 micro Ci/ml) to label lipid-linked saccharides and cellular proteins, respectively. At the end of the labeling period, the medium was removed by aspiration, and the monolayers were washed 3 times with PB S. One ml of PBS was added to each well, the cells were dislodged by scraping, and were then quantitatively transferred to reaction tubes. Each well was washed with another 1 ml of PBS and this rinse was also added to the initial tube. Radioactivity incorporated into lipid-linked monosaccharides and oligosaccharides was determined after extraction with chloroform:methanol:water (1:1:1) and chloroform:methanol:water (10:10:3), respectively, as previously described (60).
(§3) Uninfected MDCK cells were grown in 6well Limbro tissue culture dishes. A
(§4) confluency, australine was added to some wells to the final concentration
(§5) listed above. After a 2 hour incubation to allow the alkaloid to take
(§6) effect, [^3 H]mannose was added to a final concentration of 20 micro
(§7) Ci/ml, and the incubations were continued. At the times shown, the medium
(§8) was removed by aspiration, and the monolayers were washed three times wit
(§9) PBS. The cells were released from the wells by scraping, placed in tubes,
(§10) then sequentially extracted with chloroform:methanol:water (1:1:1) for
(§11) lipidlinked monosaccharides, and chloroform:methanol:water (10:10:3) for
(§12) lipidlinked oligosaccharides. The total radioactivity incorporated into
(§13) the lipidlinked sugars was determined by liquid scintillation counting.

uninfected MDCK cells [4] = assay: incorporation of [3H]leucine into protein (protein synthesis)
Description: (§14) The cells then were incubated for 15-120 min with either [2-^3 H]mannose (20 micro Ci/ml) or [4,5-^3 H]leucine (10 micro Ci/ml) to label lipid-linked saccharides and cellular proteins, respectively. At the end of the labeling period, the medium was removed by aspiration, and the monolayers were washed 3 times with PB S. One ml of PBS was added to each well, the cells were dislodged by scraping, and were then quantitatively transferred to reaction tubes. Each well was washed with another 1 ml of PBS and this rinse was also added to the initial tube. […] For the incorporation of radiolabel into protein, cells were extracted with TCA at a final concentration of 20% in the presence of 500 micro g of bovine serum albumin. Following an overnight incubation at 4° C., precipitated protein was isolated by centrifugation. The precipitate was washed twice with 5% TCA, and once with absolute methanol, and then digested with Pronase as described above. Pronase-released radioactivity was measured by liquid scintillation counting.
(§15) Uninfected MDCK cells were grown in 6well Limbro tissue culture dishes.
as §4
(§16) After a 2 hours incubation to allow the alkaloid to take
At the times shown, the medium
as §8, §9
(§17) and extracted with 20% TCA as described above. Radioactivity incorporated
(§18) into total cellular protein was determined after Pronase digestion by
liquid scintillation counting.

intestinal sucrase = biological target: T3, intestinal sucrase (Homo sapiens, UniProt P14410); assay: intestinal sucrase activity, sucrose as substrate; assay type: biochemical
T3 construct: from tissue
Description: as §1

glucosidase I = assay: processing glucosidase I, release of [3H]glucose from Glc3Man9GlcNAc; assay type: biochemical, mung bean
alpha-galactosidase = alpha-galactosidase inhibition; assay type: biochemical, Aspergillus niger
uninfected MDCK cells [5] = test system: uninfected MDCK cells
Description: as §14, §15, §4, §16
At the times shown, the medium
as §8, §9, §17, §18
liquid scintillation counting.

uninfected MDCK cells [6] = assay: incorporation of [3H]mannose into lipid-linked saccharides
Description: as §2, §3, §4, §5, §6, §7, §8, §9, §10, §11, §12, §13

[7] = test system: influenza virus glycoproteins in infected MDCK cells; settings: cited from earlier work
glycosidases = assay: glycosidase inhibitory activity against generally available glycosidases; assay type: biochemical
Text: GENERAL EX[…]. The alkaloids were monitored for purity by tlc on 0.25 mm silica gel plates developed with CHCl3 :MeOH:HN4 OH:H2 O (70:26:2:2) and detected by spraying with acetic anhydride followed by Ehrlich's reagent (21). Homogeneity was also checked by gc of the TMS derivatives, prepared by treatment with MSTFA in pyridine, on a Hewlett-Packard 5830 instrument equipped with a flame-ionization detector, on-column injector, and a 30-m×0.32-mm i.d. SE-30 fused silica column. Low resolution electron and ammonia chemical ionization mass spectra were obtained on a VG Micromass 7070 mass spectrometer; high resolution mass measurements were determined on the same instrument. Optical rotations were measured in a 1-dm cell on a Perkin-Elmer 241 automatic polarimeter. Nuclear magnetic resonance spectra were determined in D2 O on a Nicolet NTC 200FT spectrometer with software package at 200 MHz (^1 H) and at 50.3 MHz (^13 C) using 3-(trimethylsilyl)-1-propanesulfonic acid (TSP) as an internal standard. Multiplicities for ^13 C signals were determined by application of the carbon attached proton test (CAPT) sequence. Preparative centrifugal tlc was performed on a Chromatotron Model 7924 (Harrison Research, Palo Alto, Calif.). Enzyme assay methods have been previously described (67), Melting points are uncorrected.

[8] = concentrations up to 500 micro M

Sequence of Beta-Mannosidase (Q9UUZ3 22-931): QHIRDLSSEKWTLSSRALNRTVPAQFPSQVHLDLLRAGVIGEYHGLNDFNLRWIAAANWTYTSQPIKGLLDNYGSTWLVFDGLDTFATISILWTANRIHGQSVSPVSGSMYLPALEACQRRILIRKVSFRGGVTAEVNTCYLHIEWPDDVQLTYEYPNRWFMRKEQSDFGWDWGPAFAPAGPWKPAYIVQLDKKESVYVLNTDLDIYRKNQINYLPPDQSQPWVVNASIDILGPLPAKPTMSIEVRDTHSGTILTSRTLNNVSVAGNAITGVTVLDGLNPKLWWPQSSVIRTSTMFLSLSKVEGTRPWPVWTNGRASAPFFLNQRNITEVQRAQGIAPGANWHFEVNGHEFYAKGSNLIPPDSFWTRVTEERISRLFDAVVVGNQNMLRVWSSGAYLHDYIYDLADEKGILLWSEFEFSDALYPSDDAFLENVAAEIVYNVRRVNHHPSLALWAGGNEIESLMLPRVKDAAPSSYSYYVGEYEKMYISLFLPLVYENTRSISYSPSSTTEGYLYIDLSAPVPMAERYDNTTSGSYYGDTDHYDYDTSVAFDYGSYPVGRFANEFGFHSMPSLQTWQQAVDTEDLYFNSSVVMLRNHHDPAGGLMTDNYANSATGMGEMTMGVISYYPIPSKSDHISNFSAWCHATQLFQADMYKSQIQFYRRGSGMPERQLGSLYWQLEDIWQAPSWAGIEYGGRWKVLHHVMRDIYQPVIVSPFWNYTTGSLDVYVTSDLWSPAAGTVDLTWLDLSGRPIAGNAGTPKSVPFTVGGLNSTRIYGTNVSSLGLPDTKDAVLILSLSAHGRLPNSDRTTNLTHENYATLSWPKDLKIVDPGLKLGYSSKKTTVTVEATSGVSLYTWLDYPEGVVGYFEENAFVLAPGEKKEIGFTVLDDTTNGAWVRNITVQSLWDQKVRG
T2 sequence (P69328 25-640): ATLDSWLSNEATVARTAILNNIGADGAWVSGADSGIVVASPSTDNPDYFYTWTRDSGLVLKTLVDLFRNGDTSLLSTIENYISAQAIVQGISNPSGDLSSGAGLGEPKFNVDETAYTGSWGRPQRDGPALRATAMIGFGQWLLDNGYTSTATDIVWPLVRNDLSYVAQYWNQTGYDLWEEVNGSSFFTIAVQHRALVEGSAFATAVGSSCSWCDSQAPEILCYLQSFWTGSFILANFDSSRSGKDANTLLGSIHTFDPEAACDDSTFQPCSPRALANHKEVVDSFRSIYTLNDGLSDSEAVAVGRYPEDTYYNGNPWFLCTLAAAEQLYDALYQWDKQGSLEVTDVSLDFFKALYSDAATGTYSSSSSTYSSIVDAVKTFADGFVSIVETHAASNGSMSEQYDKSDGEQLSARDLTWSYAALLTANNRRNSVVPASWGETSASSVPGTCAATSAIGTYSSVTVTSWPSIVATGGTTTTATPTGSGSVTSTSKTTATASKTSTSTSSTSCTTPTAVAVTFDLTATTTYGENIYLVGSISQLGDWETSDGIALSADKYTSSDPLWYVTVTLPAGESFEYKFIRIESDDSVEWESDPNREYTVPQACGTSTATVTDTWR
T1 sequence (C0HJB3 whole entry): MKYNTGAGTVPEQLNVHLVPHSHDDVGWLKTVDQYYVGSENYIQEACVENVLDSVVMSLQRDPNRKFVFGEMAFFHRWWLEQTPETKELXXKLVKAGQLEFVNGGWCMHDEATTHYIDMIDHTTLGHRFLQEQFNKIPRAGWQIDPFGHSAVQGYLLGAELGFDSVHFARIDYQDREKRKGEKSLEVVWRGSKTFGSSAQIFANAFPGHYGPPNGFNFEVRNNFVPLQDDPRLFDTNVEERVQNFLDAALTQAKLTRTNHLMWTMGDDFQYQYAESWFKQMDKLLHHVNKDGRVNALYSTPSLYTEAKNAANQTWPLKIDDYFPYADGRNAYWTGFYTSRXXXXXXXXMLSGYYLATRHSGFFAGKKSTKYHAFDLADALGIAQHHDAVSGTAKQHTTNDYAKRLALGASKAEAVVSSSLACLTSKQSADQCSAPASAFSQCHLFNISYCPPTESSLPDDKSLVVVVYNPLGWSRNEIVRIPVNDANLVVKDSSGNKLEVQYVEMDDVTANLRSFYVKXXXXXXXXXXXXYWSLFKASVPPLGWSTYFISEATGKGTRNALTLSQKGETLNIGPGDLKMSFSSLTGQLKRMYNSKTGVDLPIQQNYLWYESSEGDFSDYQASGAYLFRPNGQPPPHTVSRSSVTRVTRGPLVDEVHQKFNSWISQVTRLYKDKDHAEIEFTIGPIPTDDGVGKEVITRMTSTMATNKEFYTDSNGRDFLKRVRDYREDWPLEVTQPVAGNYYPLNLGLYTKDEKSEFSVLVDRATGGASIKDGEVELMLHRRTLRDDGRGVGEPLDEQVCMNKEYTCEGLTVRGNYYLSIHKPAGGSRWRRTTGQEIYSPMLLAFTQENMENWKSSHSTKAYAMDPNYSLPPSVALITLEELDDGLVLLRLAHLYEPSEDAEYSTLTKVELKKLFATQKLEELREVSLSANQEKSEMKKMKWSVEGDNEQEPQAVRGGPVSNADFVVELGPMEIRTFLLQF
T3 sequence (P14410 whole entry): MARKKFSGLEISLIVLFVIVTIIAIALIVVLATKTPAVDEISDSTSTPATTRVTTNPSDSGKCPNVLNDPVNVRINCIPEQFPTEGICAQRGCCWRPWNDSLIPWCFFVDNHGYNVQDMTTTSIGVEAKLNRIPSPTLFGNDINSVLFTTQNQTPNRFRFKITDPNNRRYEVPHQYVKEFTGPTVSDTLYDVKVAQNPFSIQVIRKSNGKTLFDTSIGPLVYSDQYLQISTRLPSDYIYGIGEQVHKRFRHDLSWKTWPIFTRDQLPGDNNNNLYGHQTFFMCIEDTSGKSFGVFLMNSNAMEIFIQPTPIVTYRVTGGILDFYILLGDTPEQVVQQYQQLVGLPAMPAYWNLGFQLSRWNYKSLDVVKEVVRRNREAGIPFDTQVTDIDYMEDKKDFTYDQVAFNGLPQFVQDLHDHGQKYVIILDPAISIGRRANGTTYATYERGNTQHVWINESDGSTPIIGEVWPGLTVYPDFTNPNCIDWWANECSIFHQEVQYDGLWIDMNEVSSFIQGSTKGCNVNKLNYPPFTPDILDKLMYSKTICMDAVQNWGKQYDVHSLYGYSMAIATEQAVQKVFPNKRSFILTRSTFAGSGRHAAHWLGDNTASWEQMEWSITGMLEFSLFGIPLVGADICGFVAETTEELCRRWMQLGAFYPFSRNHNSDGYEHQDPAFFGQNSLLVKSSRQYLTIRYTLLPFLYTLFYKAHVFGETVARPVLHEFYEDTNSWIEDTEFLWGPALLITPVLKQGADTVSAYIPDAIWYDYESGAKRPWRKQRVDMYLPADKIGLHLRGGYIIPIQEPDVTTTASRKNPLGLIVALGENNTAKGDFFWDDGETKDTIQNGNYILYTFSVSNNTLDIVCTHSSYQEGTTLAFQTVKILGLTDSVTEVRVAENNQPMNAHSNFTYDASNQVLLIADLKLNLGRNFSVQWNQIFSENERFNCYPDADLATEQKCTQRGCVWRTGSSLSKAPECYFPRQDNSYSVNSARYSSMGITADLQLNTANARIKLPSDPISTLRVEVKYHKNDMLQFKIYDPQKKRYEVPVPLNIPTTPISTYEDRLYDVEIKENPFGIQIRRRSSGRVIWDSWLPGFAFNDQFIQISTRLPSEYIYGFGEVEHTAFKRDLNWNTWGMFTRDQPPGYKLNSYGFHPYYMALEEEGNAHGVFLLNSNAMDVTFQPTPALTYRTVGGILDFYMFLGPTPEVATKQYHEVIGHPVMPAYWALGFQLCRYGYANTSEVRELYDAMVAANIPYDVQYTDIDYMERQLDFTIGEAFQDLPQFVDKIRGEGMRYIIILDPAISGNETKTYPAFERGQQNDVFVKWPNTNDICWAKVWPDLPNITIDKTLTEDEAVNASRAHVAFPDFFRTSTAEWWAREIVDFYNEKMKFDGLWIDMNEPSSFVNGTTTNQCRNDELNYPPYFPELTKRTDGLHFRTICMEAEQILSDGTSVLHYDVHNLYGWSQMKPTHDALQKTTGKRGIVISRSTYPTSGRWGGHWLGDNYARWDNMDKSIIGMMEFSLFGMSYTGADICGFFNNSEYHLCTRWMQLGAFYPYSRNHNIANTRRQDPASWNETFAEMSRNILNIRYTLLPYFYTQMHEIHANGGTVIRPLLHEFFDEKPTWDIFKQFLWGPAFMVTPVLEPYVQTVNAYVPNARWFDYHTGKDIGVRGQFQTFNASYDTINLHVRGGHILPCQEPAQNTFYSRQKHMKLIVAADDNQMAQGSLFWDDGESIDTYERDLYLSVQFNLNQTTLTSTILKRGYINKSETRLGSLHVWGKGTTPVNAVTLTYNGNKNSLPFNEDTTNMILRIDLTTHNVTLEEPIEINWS

OC[C@@H]1[C@@H](O)[C@H](O)[C@H]2[C@@H](O)CCN21 [australine, (1R, 2R, 3R, 7S, 7aR)-3-hydroxymethyl-1,2,7-trihydroxypyrrolizidine]
inhibition of alpha-mannosidase (alpha-mannosidase): No significant inhibition | effect on alpha-mannosidase (alpha-mannosidase; [8]): no apparent effect | inhibition of beta-galactosidase (beta-galactosidase): No significant inhibition | effect on beta-galactosidase (beta-galactosidase; [8]): no apparent effect | Ki (intestinal maltase): ~35 µM | activity against glucosidase II (glucosidase II; [8]): no activity | Endo H-released proportion [1]: 55% | inhibition of beta-mannosidase (Beta-Mannosidase): No significant inhibition | effect on beta-mannosidase (Beta-Mannosidase; [8]): no apparent effect | Ki (amyloglucosidase; Example 2, p-nitrophenyl-alpha-D-glucoside substrate, read-out: apparent Ki): 5.8 µM | type of inhibition (amyloglucosidase; Lineweaver-Burk, 0.5 and 1 micro g/ml australine): competitive | inhibition of HIV-1 replication [2]: inhibited the growth of the virus, but this alkaloid was not as effective as an inhibitor as was castanospermine | inhibition of beta-glucosidase (beta-glucosidase): No significant inhibition | inhibition of beta-glucosidase activity (beta-glucosidase; at 66 micro M): less than 5% | Radioactivity, Lipid-linked oligosaccharides (uninfected MDCK cells [3]): 1077 cpm | Radioactivity incorporated into protein (uninfected MDCK cells [4]; 50 micro ug/ml, 60 min): 16572 cpm | Radioactivity incorporated into protein (uninfected MDCK cells [4]; 50 micro ug/ml, 90 min): 23341 cpm | Radioactivity incorporated into protein (uninfected MDCK cells [4]; 50 micro ug/ml, 120 min): 33704 cpm | effect on overall rate of protein synthesis (uninfected MDCK cells [4]; 50 to 500 micro g/ml, times up to 120 min): little effect | Radioactivity incorporated into protein (uninfected MDCK cells [4]; 250 micro ug/ml, 30 min): 8064 cpm | Radioactivity incorporated into protein (uninfected MDCK cells [4]; 250 micro ug/ml, 60 min): 13604 cpm | Radioactivity incorporated into protein (uninfected MDCK cells [4]; 250 micro ug/ml, 90 min): 27776 cpm | Radioactivity incorporated into protein (uninfected MDCK cells [4]; 250 micro ug/ml, 120 min): 36140 cpm | Radioactivity incorporated into protein (uninfected MDCK cells [4]; 500 micro ug/ml, 30 min): 9124 cpm | Radioactivity incorporated into protein (uninfected MDCK cells [4]; 500 micro ug/ml, 60 min): 15648 cpm | Radioactivity incorporated into protein (uninfected MDCK cells [4]; 500 micro ug/ml, 90 min): 26060 cpm | Radioactivity incorporated into protein (uninfected MDCK cells [4]; 500 micro ug/ml, 120 min): 32704 cpm | Ki (intestinal sucrase): ~28 µM | Ki (glucosidase I): ~20 µM | inhibition of alpha-galactosidase (alpha-galactosidase): No significant inhibition | effect on alpha-galactosidase (alpha-galactosidase; [8]): no apparent effect | Radioactivity incorporated into protein (uninfected MDCK cells [5]; 50 micro ug/ml, 30 min): 9252 cpm | Radioactivity incorporated into protein (uninfected MDCK cells [5]; 100 micro ug/ml, 30 min): 8304 cpm | Radioactivity incorporated into protein (uninfected MDCK cells [5]; 100 micro ug/ml, 60 min): 1588 cpm | Radioactivity incorporated into protein (uninfected MDCK cells [5]; 100 micro ug/ml, 90 min): 25636 cpm | Radioactivity incorporated into protein (uninfected MDCK cells [5]; 100 micro ug/ml, 120 min): 32008 cpm | incorporation of [3H]mannose into lipid-linked oligosaccharide (uninfected MDCK cells [6]; 50-500 micro g/ml): appeared to be stimulated | Radioactivity, Lipid-linked monosaccharides (uninfected MDCK cells [6]; 50 micro g/ml, 15 min): 97 cpm | Radioactivity, Lipid-linked oligosaccharides (uninfected MDCK cells [6]; 50 micro g/ml, 15 min): 1672 cpm | Radioactivity, Lipid-linked monosaccharides (uninfected MDCK cells [6]; 50 micro g/ml, 30 min): 122 cpm | Radioactivity, Lipid-linked oligosaccharides (uninfected MDCK cells [6]; 50 micro g/ml, 30 min): 5021 cpm | Radioactivity, Lipid-linked monosaccharides (uninfected MDCK cells [6]; 50 micro g/ml, 60 min): 229 cpm | Radioactivity, Lipid-linked monosaccharides (uninfected MDCK cells [6]; 100 micro g/ml, 15 min): 101 cpm | Radioactivity, Lipid-linked oligosaccharides (uninfected MDCK cells [6]; 100 micro g/ml, 15 min): 2336 cpm | Radioactivity, Lipid-linked monosaccharides (uninfected MDCK cells [6]; 100 micro g/ml, 30 min): 151 cpm | Radioactivity, Lipid-linked oligosaccharides (uninfected MDCK cells [6]; 100 micro g/ml, 30 min): 5335 cpm | Radioactivity, Lipid-linked monosaccharides (uninfected MDCK cells [6]; 100 micro g/ml, 60 min): 244 cpm | Radioactivity, Lipid-linked oligosaccharides (uninfected MDCK cells [6]; 100 micro g/ml, 60 min): 1104 cpm | Radioactivity, Lipid-linked monosaccharides (uninfected MDCK cells [6]; 250 micro g/ml, 15 min): 107 cpm | Radioactivity, Lipid-linked oligosaccharides (uninfected MDCK cells [6]; 250 micro g/ml, 15 min): 2073 cpm | Radioactivity, Lipid-linked monosaccharides (uninfected MDCK cells [6]; 250 micro g/ml, 30 min): 115 cpm | Radioactivity, Lipid-linked oligosaccharides (uninfected MDCK cells [6]; 250 micro g/ml, 30 min): 5661 cpm | Radioactivity, Lipid-linked monosaccharides (uninfected MDCK cells [6]; 250 micro g/ml, 60 min): 212 cpm | Radioactivity, Lipid-linked oligosaccharides (uninfected MDCK cells [6]; 250 micro g/ml, 60 min): 995 cpm | Radioactivity, Lipid-linked monosaccharides (uninfected MDCK cells [6]; 500 micro g/ml, 15 min): 96 cpm | Radioactivity, Lipid-linked oligosaccharides (uninfected MDCK cells [6]; 500 micro g/ml, 15 min): 2957 cpm | Radioactivity, Lipid-linked monosaccharides (uninfected MDCK cells [6]; 500 micro g/ml, 30 min): 178 cpm | Radioactivity, Lipid-linked oligosaccharides (uninfected MDCK cells [6]; 500 micro g/ml, 30 min): 6167 cpm | Radioactivity, Lipid-linked monosaccharides (uninfected MDCK cells [6]; 500 micro g/ml, 60 min): 236 cpm | Radioactivity, Lipid-linked oligosaccharides (uninfected MDCK cells [6]; 500 micro g/ml, 60 min): 1108 cpm

O[C@H]1[C@H](O)[C@@H](O)CN2CC[C@H](O)[C@H]12 [castanospermine, reference compound]
Ki (intestinal maltase): < 1 µM | inhibition of glucosidase II (glucosidase II): inhibited by micromolar amounts | concentration producing the same degree of inhibition (increased proportion of Endo H-susceptible glycopeptides) as 500 micro g/ml australine [7]: 10 micro g/ml | Ki (amyloglucosidase; Example 1, read-out: Ki): 7.9 µM | inhibition of beta-glucosidase (beta-glucosidase): inhibited | IC50 (beta-glucosidase; read-out: level which inhibited 50% of the beta-glucosidase activity): 66 µM | Ki (intestinal sucrase): < 1 µM | Ki (glucosidase I): ~1 µM

OC[C@H]1NCC[C@@H](O)[C@@H]1O [fagomine, 1,2,5-trideoxy-1,5-imino-D-arabino-hexitol, reference compound]
inhibition of alpha-mannosidase (alpha-mannosidase): No significant glycosidase inhibitory activity | inhibition of beta-galactosidase (beta-galactosidase): No significant glycosidase inhibitory activity | glycosidase inhibitory activity (glycosidases): no inhibitory activity | inhibition of beta-mannosidase (Beta-Mannosidase): No significant glycosidase inhibitory activity | glycosidase inhibitory activity against alpha-glucosidase (amyloglucosidase; commercially available enzyme): No significant glycosidase inhibitory activity | inhibition of beta-glucosidase (beta-glucosidase): No significant glycosidase inhibitory activity | inhibition of alpha-galactosidase (alpha-galactosidase): No significant glycosidase inhibitory activity

OC[C@@H]1[C@@H]2[C@H](O)CCN2C[C@H]1O [rosmarinecine]
glycosidase inhibitory activity (glycosidases): lack glycosidase inhibitory activity
